Columns and labels:
Format in all cases: functional
[1] = system: EKVX; assay: Growth inhibition of human EKVX cells after 48 hrs by SRB protein assay
[2] = system: KM12; assay: Growth inhibition of human KM12 cells after 48 hrs by SRB protein assay; settings: KM12, 48 h
[3] = system: RPMI-8226; assay: Growth inhibition of human RPMI8226 cells after 48 hrs by SRB protein assay; settings: RPMI-8226, 48 h
[4] = Growth inhibition of human 786O cells after 48 hrs by SRB protein assay; settings: 786-0, 48 h
[5] = system: SF-268; assay: Growth inhibition of human SF268 cells after 48 hrs by SRB protein assay; settings: SF-268, 48 h
[6] = system: DU-145; assay: Growth inhibition of human DU145 cells after 48 hrs by SRB protein assay; settings: DU-145, 48 h
[7] = system: A549; assay: Growth inhibition of human A549 cells after 48 hrs by SRB protein assay; settings: A549, 48 h
[8] = system: BT-549; assay: Growth inhibition of human BT549 cells after 48 hrs by SRB protein assay; settings: BT-549, 48 h
[9] = system: CCRF-CEM; assay: Growth inhibition of human CCRF-CEM cells after 48 hrs by SRB protein assay
[10] = system: SK-MEL-28; assay: Growth inhibition of human SK-MEL-28 cells after 48 hrs by SRB protein assay; settings: SK-MEL-28, 48 h
[11] = system: NCI-H460; assay: Growth inhibition of human NCI-H460 cells after 48 hrs by SRB protein assay; settings: NCI-H460, 48 h
[12] = system: SNB-75; assay: Growth inhibition of human SNB75 cells after 48 hrs by SRB protein assay; settings: SNB-75, 48 h
[13] = system: SW-620; assay: Growth inhibition of human SW620 cells after 48 hrs by SRB protein assay; settings: SW-620, 48 h
[14] = system: HT-29; assay: Growth inhibition of human HT29 cells after 48 hrs by SRB protein assay; settings: HT-29, 48 h
[15] = system: HCC 2998; assay: Growth inhibition of human HCC2998 cells after 48 hrs by SRB protein assay; settings: HCC 2998, 48 h
[16] = system: LOX IMVI; assay: Growth inhibition of human LOX IMVI cells after 48 hrs by SRB protein assay
[17] = system: UACC-257; assay: Growth inhibition of human UACC257 cells after 48 hrs by SRB protein assay; settings: UACC-257, 48 h
[18] = system: NCI-H322M; assay: Growth inhibition of human NCI-H322M cells after 48 hrs by SRB protein assay
[19] = system: MDA-MB-435; assay: Growth inhibition of human MDA-MB-435 cells after 48 hrs by SRB protein assay; settings: MDA-MB-435, 48 h
[20] = system: NCI-H522; assay: Growth inhibition of human NCI-H522 cells after 48 hrs by SRB protein assay; settings: NCI-H522, 48 h
[21] = system: SN12C; assay: Growth inhibition of human SN12C cells after 48 hrs by SRB protein assay
[22] = system: M14; assay: Growth inhibition of human M14 cells after 48 hrs by SRB protein assay; settings: M14, 48 h
[23] = system: SNB-19; assay: Growth inhibition of human SNB19 cells after 48 hrs by SRB protein assay; settings: SNB-19, 48 h
[24] = system: SF-295; assay: Growth inhibition of human SF295 cells after 48 hrs by SRB protein assay; settings: SF-295, 48 h
[25] = system: UO-31; assay: Growth inhibition of human UO31 cells after 48 hrs by SRB protein assay; settings: UO-31, 48 h
[26] = system: UACC-62; assay: Growth inhibition of human UACC62 cells after 48 hrs by SRB protein assay; settings: UACC-62, 48 h
[27] = system: PC-3; assay: Growth inhibition of human PC3 cells after 48 hrs by SRB protein assay; settings: PC-3, 48 h
[28] = system: NCI-H23; assay: Growth inhibition of human NCI-H23 cells after 48 hrs by SRB protein assay; settings: NCI-H23, 48 h
[29] = system: SK-OV-3; assay: Growth inhibition of human SK-OV-3 cells after 48 hrs by SRB protein assay; settings: SK-OV-3, 48 h
[30] = system: HCT-15; assay: Growth inhibition of human HCT15 cells after 48 hrs by SRB protein assay; settings: HCT-15, 48 h
[31] = system: SF-539; assay: Growth inhibition of human SF539 cells after 48 hrs by SRB protein assay; settings: SF-539, 48 h
[32] = system: SK-MEL-5; assay: Growth inhibition of human SK-MEL-5 cells after 48 hrs by SRB protein assay; settings: SK-MEL-5, 48 h
[33] = system: Hs-578T; assay: Growth inhibition of human HS578T cells after 48 hrs by SRB protein assay
[34] = system: HCT-116; assay: Growth inhibition of human HCT116 cells after 48 hrs by SRB protein assay; settings: HCT-116, 48 h
[35] = system: MCF7; assay: Growth inhibition of human MCF7 cells after 48 hrs by SRB protein assay; settings: MCF7, 48 h
[36] = system: COLO 205; assay: Growth inhibition of human COLO205 cells after 48 hrs by SRB protein assay; settings: COLO 205, 48 h
[37] = system: HOP-62; assay: Growth inhibition of human HOP62 cells after 48 hrs by SRB protein assay; settings: HOP-62, 48 h
[38] = system: RXF 393; assay: Growth inhibition of human RXF393 cells after 48 hrs by SRB protein assay; settings: RXF 393, 48 h
[39] = system: CAKI-1; assay: Growth inhibition of human CAKI1 cells after 48 hrs by SRB protein assay; settings: CAKI-1, 48 h

COc1cccc(OC)c1/C=N/NC(=O)Cc1csc2nc(-c3ccc(Br)cc3)cn12
GI50 [1]: 17 µM | TGI ([1]; read-out: Log TGI (converted)): 57.5 µM | GI50 [2]: 8.91 µM | TGI ([2]; read-out: Log TGI (converted)): > 100 µM | GI50 [3]: 10.2 µM | TGI ([3]; read-out: Log TGI (converted)): > 100 µM | GI50 [4]: 26.3 µM | TGI ([4]; read-out: Log TGI (converted)): > 100 µM | GI50 [5]: > 100 µM | TGI ([5]; read-out: Log TGI (converted)): > 100 µM | GI50 [6]: 17.8 µM | TGI ([6]; read-out: Log TGI (converted)): 47.9 µM | GI50 [7]: 11.5 µM | TGI ([7]; read-out: Log TGI (converted)): 38.9 µM | GI50 [8]: 12.9 µM | TGI ([8]; read-out: Log TGI (converted)): 33.9 µM | GI50 [9]: 9.55 µM | TGI ([9]; read-out: Log TGI (converted)): > 100 µM | GI50 [10]: 41.7 µM | TGI ([10]; read-out: Log TGI (converted)): > 100 µM | GI50 [11]: > 100 µM | TGI ([11]; read-out: Log TGI (converted)): > 100 µM | GI50 [12]: 24 µM | TGI ([12]; read-out: Log TGI (converted)): 66.1 µM | GI50 [13]: 6.46 µM | TGI ([13]; read-out: Log TGI (converted)): 49 µM | GI50 [14]: 16.2 µM | TGI ([14]; read-out: Log TGI (converted)): > 100 µM | GI50 [15]: 10 µM | TGI ([15]; read-out: Log TGI (converted)): 34.7 µM | GI50 [16]: 12.6 µM | TGI ([16]; read-out: Log TGI (converted)): 47.9 µM | GI50 [17]: 24 µM | TGI ([17]; read-out: Log TGI (converted)): 97.7 µM | GI50 [18]: 14.8 µM | TGI ([18]; read-out: Log TGI (converted)): 61.7 µM | GI50 [19]: 3.98 µM | TGI ([19]; read-out: Log TGI (converted)): 16.2 µM | GI50 [20]: 22.9 µM | TGI ([20]; read-out: Log TGI (converted)): > 100 µM | GI50 [21]: 20.9 µM | TGI ([21]; read-out: Log TGI (converted)): 49 µM | GI50 [22]: 15.1 µM | TGI ([22]; read-out: Log TGI (converted)): 72.4 µM | GI50 [23]: 31.6 µM | TGI ([23]; read-out: Log TGI (converted)): > 100 µM | GI50 [24]: 12.3 µM | TGI ([24]; read-out: Log TGI (converted)): 34.7 µM | GI50 [25]: 60.3 µM | TGI ([25]; read-out: Log TGI (converted)): > 100 µM | GI50 [26]: 12 µM | TGI ([26]; read-out: Log TGI (converted)): 27.5 µM | GI50 [27]: 13.5 µM | TGI ([27]; read-out: Log TGI (converted)): 93.3 µM | GI50 [28]: 19.5 µM | TGI ([28]; read-out: Log TGI (converted)): 52.5 µM | GI50 [29]: 57.5 µM | TGI ([29]; read-out: Log TGI (converted)): > 100 µM | GI50 [30]: 7.41 µM | TGI ([30]; read-out: Log TGI (converted)): 64.6 µM | GI50 [31]: 11.2 µM | TGI ([31]; read-out: Log TGI (converted)): 24.5 µM | GI50 [32]: 8.91 µM | TGI ([32]; read-out: Log TGI (converted)): 42.7 µM | GI50 [33]: 11.5 µM | TGI ([33]; read-out: Log TGI (converted)): 45.7 µM | GI50 [34]: 4.57 µM | TGI ([34]; read-out: Log TGI (converted)): 15.8 µM | GI50 [35]: 29.5 µM | TGI ([35]; read-out: Log TGI (converted)): > 100 µM | GI50 [36]: 35.5 µM | TGI ([36]; read-out: Log TGI (converted)): > 100 µM | GI50 [37]: 13.2 µM | TGI ([37]; read-out: Log TGI (converted)): 30.2 µM | GI50 [38]: 19.1 µM | TGI ([38]; read-out: Log TGI (converted)): 67.6 µM | GI50 [39]: 12.6 µM | TGI ([39]; read-out: Log TGI (converted)): 33.9 µM

From ChEMBL document CHEMBL1143799, “Synthesis and primary cytotoxicity evaluation of new imidazo[2,1-b]thiazole derivatives” (2007)
